Data published in patent publication US20120141432A1, “USE OF CATALYTIC ANTIOXIDANT TO PRESERVE STEM CELL PHENOTYPE AND CONTROL CELL DIFFERENTIATION” (University of Pittsburgh- Of the Commonwealth System of …, priority 2010, published 2012).
“Also recorded” adds a separate entry of the source.

Experiments:
Format in all cases: cell-based
[1] = test system: muscle stem cells; experiment: Myogenic differentiation of muscle stem cells (% of nuclei within myosin positive myotubes)
Protocol: (§1) FIGS. 2A and 2B are a set of bar graphs showing the effect of the catalytic antioxidant FBC-007 on the differentiation of muscle stem cells. The effect of FBC-007 at a concentration of 34 μM was measured on the myogenic differentiation of muscle stem cells. Differentiation was determined as the % of nuclei located within myosin positive myotubes and multinucleated myotubes.
In vitro Myogenic Differentiation: Cell populations from 3 different time points (<5 PDs, midpoint PDs, and maximal expansion) are evaluated. Briefly cells are plated at high density of 2000 cells/cm^2 in a low serum medium. After 3-4 days in culture, the media is changed to low serum or 2% serum medium. After day 7, immunocytochemical staining is performed to reveal fast myosin heavy chain (MyHC) expression. Methanol-fixed cultures are blocked with 5% HS and incubated with monoclonal mouse anti-MyHC (Sigma, 1:250, Sigma), biotinylated IgG (1:250, Vector), and streptavidin-Cy3 (1:500). […] In vitro differentiation efficiency is calculated as the ratio of myogenic nuclei to total nuclei.

[2] = test system: muscle stem cells; experiment: Division time, cell growth and proliferation of muscle stem cells
Protocol: as §1
In Vitro Live Cell Imaging (LCI) to study Quiescent Nondividing cells. In vitro LCI is used to measure the fraction or proportion which is quiescent and nondividing after cytokine stimulation. The LCI system is unique in providing time-lapse images to characterize the cell populations. Using CytoTracker, DataCollector, and informatics tools, the growth rates of the populations are determined as described previously (Deasy et al., Stem Cells 20, 50-60 (2002)). In this way subpopulations or individual cells can be quantified. The combined the cell growth counts and the data of cell division time is used to calculate the size of the non-dividing fraction via a non-exponential Sherley equation (Sherley et al., Cell Prolif. 28, 137-44 (1995)).

[3] = test system: human umbilical cord mesenchymal stem cells; experiment: Osteogenic differentiation of umbilical cord mesenchymal stem cells (ALP staining); details: 34 μM, BMP4 0, 0.1 or 10 ng/mL, vs control with no antioxidant, FIG. 3
Protocol: The cells were contacted with the catalytic antioxidant at a concentration of 34 μM and bone morphogenic protein (BMP4) at concentrations of 0, 0.1, or 10 ng/mL.
Umbilical cord mesenchymal stem cells (UC-MSCs) were isolated and cultured. Cells were plated in the presence and absence of catalytic antioxidant. Live cell time-lapsed imaging was used to examine proliferation and apoptosis; images were analyzed using custom software obtained from Kairos Instruments. Osteogenic differentiation was stimulated using previously described methods; Alkaline Phosphatase (ALP) staining was used to determine stem cell differentiation (see Schugar et al., J Biomed Biotechnol 2009, 789526 (2009)). Cell phenotype was examined by flow cytometry (Schugar et al., J Biomed Biotechnol 2009, 789526 (2009)). Levels of intracellular reactive oxygen species were examined using dihydroxyrhodamine 123.

[4] = test system: stem cells; experiment: Rescue from hydrogen peroxide-induced cell death
Source text: In other words, contacting stem cells with catalytic antioxidants allows the stem cells to proliferate (e.g. increase their numbers) without differentiating and losing the characteristics of stem cells, such as the phenotypic characteristics that distinguish stem cells from other cells. […] Thus, as disclosed herein contacting stem cells with catalytic antioxidants permits in vitro expansion of stem cells while delaying or inhibiting the differentiation of the stem cells, as well as protecting the stem cells from oxidative stress induced cell death.

[5] = test system: human skMSC; experiment: Growth factor dose response of human skMSC by time-lapsed imaging; details: for number of muscle stem cells: after 3 days in 100 ng/mL, vs lower doses and unstimulated controls; for response of human skMSC to growth factor: time-lapsed imaging
[6] = test system: muscle stem cells; experiment: ROS in muscle stem cells grown with FGF-2; details: cells grown with FGF-2 vs absence of FGF-2, FIG. 5C
Source text: FIGS. 5A-5D are bar graphs, a plot and an electronic image showing that oxidative stress decreases cell viability (FIG. 5A) and myogenic differentiation capacity (FIG. 5B). […] FIG. 5D is an electronic image of muscle cells showing that myosin (staining) declines as ROS increases.

[7] = test system: human skMSC; experiment: BrdU pulse detection of nondividing cells; details: 3 days exposure, BrdU pulse 36 hours, P=0.01
Protocol: Nondividing cells were also detected within the human muscle cell population in the context of GF-dose-dependent studies. […] The cells were pulsed with BrdU for 36 hours (division time=19±4 hrs) immunostaining was performed to detect labeled and unlabeled cells.

[8] = test system: muscle stem cells; experiment: Growth rate of muscle cells after CFSE labeling; details: 0 μM, 1 μM or 5 μM CFSE, FIG. 7B
Protocol: Cells were stained at 1.0 μM, and then analyzed at 0, 2, and 5 days. Note that the low fluorescence intensity approaches that of unstained cells by day 5. FIG. 7D is a plot of sample lineage trees showing the presence of dividing and non-dividing cells. FIG. 7E is a set of plots showing that 24 hours after injection into mdx mice, CFSE-labeled cells are detectable.
Both time-lapsed imaging and FACS sorting were applied to the quiescent population using used cytoplasmic tracking dyes, used 5-6-carboxyfluorescein diacetate, succinimdyl ester, CFSE, and a similar molecule, CMFDA. Once cell permeable CFDA-SE is taken up by cells, intracellular esterases in the cytoplasm cleave acetate groups and convert CFDA to fluorescent CFSE. It was first confirmed that CFSE is impermeable; it was not taken in by unlabeled neighboring cells when CFSE-positive cells die (FIG. 7A). An approach was developed to use CFSE as an effective method for labeling of muscle cells.

[9] = stem cell cultures, muscle stem cell and mesenchymal stem cells

With CC[n+]1ccccc1-c1c2nc(c(-c3cccc[n+]3CC)c3ccc([n-]3)c(-c3cccc[n+]3CC)c3nc(c(-c4cccc[n+]4CC)c4ccc1[n-]4)C=C3)C=C2.[Mn+3] [FBC-007, Mn(III)tetrakis(N-ethylpyridinium-2-yl)porphyrin] the “myogenic differentiation (% of nuclei located within myosin positive myotubes and multinucleated myotubes)” value ([1]; FBC-007 34 μM vs controls without antioxidant, FIG. 2A) was “reduced levels of differentiation relative to controls”, the uninduced myogenic differentiation ([1]; absence of growth factor (GF) stimulation, FIG. 6C) was “prevents uninduced myogenic differentiation” and the “myogenic differentiation in stem cell cultures” value [1, 9] was “inhibits the myogenic differentiation”. For the same molecule, the “division time of the muscle stem cells” value ([2]; FBC-007 34 μM, FIG. 2B) was “does not show a statistically significant change”, the cell growth ([2]; FIGS. 6A and 6B) was “did not affect cell growth; also recorded: does not affect cell growth” and the “proliferation of the stem cells” value [2, 9] was “without affecting the proliferation”. The osteogenic differentiation [3] was “reduced osteogenic differentiation” and the “hydrogen peroxide-induced cell death” value [4] was “can rescue the stem cells”.
With “FGF-2: FGF-2 (basic fibroblast growth factor, bFGF)” the “number of muscle stem cells” value [5] was “significantly more muscle stem cells”, the “response of human skMSC to growth factor” value [5] was “dose-dependent response” and the “reactive oxygen species (ROS)” value [6] was “increase in some muscle stem cells”.
In the case of IGF-1: Insulin-like growth factor 1, the “number of muscle stem cells” value [5] is reported as “significantly more muscle stem cells”, the “response of human skMSC to growth factor” value [5] is reported as “dose-dependent response” and the “nondividing cells (BrdU [−])” value [7] is reported as “significantly fewer nondividing cells”.
With “carboxyfluorescein diacetate succinimidyl ester [CFSE]” the “growth rates after CFSE treatment” value [8] was “does not affect growth rates”.
